For 21 molecules, T/C results are on record in PubChem BioAssay AID248 (DTP/NCI, 2004).

Several values for one entry are separate records, joined by “and”; a condition that tells them apart may be missing. Identical values can stand only once. Toxic doses and inconclusive results are not listed.

The experiment deals with L1210 leukemia ip in BDF1 mice, survival T/C. Nature of the experiment: NCI In Vivo Anticancer Drug Screen. Data for tumor model L1210 Leukemia (intraperitoneal) in B6D2F1 (BDF1) mice. Conditions: endpoint: mean survival time, higher = longer survival. A digest of the protocol:
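In this screen, tumor-bearing mice given compound are compared to those given vehicle, and their survival values are reported as a treated-to-control quotient.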

[1] abbreviates: dose: 50.0 mg/kg/injection, schedule: Q01DX009 (ip), vehicle: Klucel (hydroxypropylcellulose) (HPC).
Where [2] appears, read: dose: 100.0 mg/kg/injection, schedule: Q04DX003 (ip), vehicle: Klucel (hydroxypropylcellulose) (HPC).
Setting [3] is: dose: 200.0 mg/kg/injection, schedule: Q04DX003 (ip), vehicle: Klucel (hydroxypropylcellulose) (HPC).
The mark [4] stands for this setting: dose: 100.0 mg/kg/injection, schedule: Q01DX001 (ip), vehicle: Klucel (hydroxypropylcellulose) (HPC).
Setting [5] is: dose: 100.0 mg/kg/injection, schedule: Q01DX009 (ip), vehicle: Klucel (hydroxypropylcellulose) (HPC).
[6] abbreviates: dose: 100.0 mg/kg/injection, schedule: Q04DX002 (ip), vehicle: Klucel (hydroxypropylcellulose) (HPC).
The mark [7] stands for this setting: dose: 200.0 mg/kg/injection, schedule: Q01DX001 (ip), vehicle: Klucel (hydroxypropylcellulose) (HPC).
The mark [8] stands for this setting: dose: 200.0 mg/kg/injection, schedule: Q01DX009 (ip), vehicle: Klucel (hydroxypropylcellulose) (HPC).
[9] abbreviates: dose: 200.0 mg/kg/injection, schedule: Q04DX002 (ip), vehicle: Klucel (hydroxypropylcellulose) (HPC).
[10] abbreviates: dose: 400.0 mg/kg/injection, schedule: Q04DX003 (ip), vehicle: Klucel (hydroxypropylcellulose) (HPC).
Setting [11] is: dose: 100.0 mg/kg/injection, schedule: Q01DX001 (ip), vehicle: saline.
Where [12] appears, read: dose: 100.0 mg/kg/injection, schedule: Q04DX003 (ip), vehicle: saline.
Setting [13] is: dose: 200.0 mg/kg/injection, schedule: Q01DX001 (ip), vehicle: saline.
[14] abbreviates: dose: 200.0 mg/kg/injection, schedule: Q04DX003 (ip), vehicle: saline.
[15] abbreviates: dose: 400.0 mg/kg/injection, schedule: Q01DX001 (ip), vehicle: saline.
Setting [16] is: dose: 400.0 mg/kg/injection, schedule: Q04DX003 (ip), vehicle: saline.
Where [17] appears, read: dose: 400.0 mg/kg/injection, schedule: Q01DX009 (ip), vehicle: Klucel (hydroxypropylcellulose) (HPC).
Setting [18] is: dose: 25.0 mg/kg/injection, schedule: Q04DX002 (ip), vehicle: Klucel (hydroxypropylcellulose) (HPC).
Where [19] appears, read: dose: 50.0 mg/kg/injection, schedule: Q04DX002 (ip), vehicle: Klucel (hydroxypropylcellulose) (HPC).

`CCOC(=O)C1C2OC(=O)C(C(=O)C2CN(CCCl)CCCl)C1C1CC=C(CC2=CCC(C3C4C(=O)OC(C(CN(CCCl)CCCl)C4=O)C3C(=O)OCC)CC2)CC1` (centres undefined): the T/C by setting is: (dose: 6.25 mg/kg/injection, schedule: Q01DX009 (ip), vehicle: Klucel (hydroxypropylcellulose) (HPC)) 108 % of control; (dose: 12.5 mg/kg/injection, schedule: Q01DX009 (ip), vehicle: Klucel (hydroxypropylcellulose) (HPC)) 116 % of control; (dose: 25.0 mg/kg/injection, schedule: Q01DX009 (ip), vehicle: Klucel (hydroxypropylcellulose) (HPC)) 158 % of control; (dose: 33.25 mg/kg/injection, schedule: Q04DX003 (ip), vehicle: Klucel (hydroxypropylcellulose) (HPC)) 109 % of control; under setting [1], 114 % of control and 120 % of control; (dose: 66.5 mg/kg/injection, schedule: Q04DX003 (ip), vehicle: Klucel (hydroxypropylcellulose) (HPC)) 109 % of control. In addition, the T/C was 114 % of control under setting [2]; 109 % of control (dose: 133.0 mg/kg/injection, schedule: Q04DX003 (ip), vehicle: Klucel (hydroxypropylcellulose) (HPC)); 120 % of control under setting [3]; 117 % of control (dose: 266.0 mg/kg/injection, schedule: Q04DX003 (ip), vehicle: Klucel (hydroxypropylcellulose) (HPC)).
Consider `CC(C(=O)c1cc(O)c(O)cc1C(O)(C(F)(F)F)C(F)(F)F)C(O)(C(F)(F)F)C(F)(F)F` (centres undefined), for which the T/C runs as follows: (dose: 100.0 mg/kg/injection, schedule: Q04DX003 (ip), vehicle: saline with Tween-80) 102 % of control; (dose: 200.0 mg/kg/injection, schedule: Q04DX003 (ip), vehicle: saline with Tween-80) 98 % of control; (dose: 400.0 mg/kg/injection, schedule: Q04DX003 (ip), vehicle: saline with Tween-80) 98 % of control.
For the molecule `Cc1cc(=O)oc2cc(OC(=O)Nc3ccccc3)ccc12`, the T/C was 93 % of control under setting [4]; 94 % of control and 105 % of control under setting [5]; 108 % of control and 118 % of control under setting [6]; 105 % of control under setting [2]; 104 % of control under setting [7]; 98 % of control under setting [8]. Also, the T/C was 112 % of control and 92 % of control under setting [9]; 100 % of control under setting [3]; 108 % of control (dose: 400.0 mg/kg/injection, schedule: Q01DX001 (ip), vehicle: Klucel (hydroxypropylcellulose) (HPC)); 92 % of control under setting [10].
As to `CNCC(O)c1ccccc1` (centres undefined), the T/C under setting [11] is 96 % of control; the T/C under setting [12] is 94 % of control; the T/C under setting [13] is 97 % of control; the T/C under setting [14] was 96 % of control; the T/C under setting [15] is 92 % of control; the T/C under setting [16] was 100 % of control.
As to `NC(CCCCn1nnc2c(=O)[nH]cnc21)C(=O)O` (centres undefined), the T/C reads like this: under setting [12], 106 % of control; under setting [14], 103 % of control; under setting [16], 97 % of control.
As to `Cc1ncc(CCO)c(CO)c1O`, the T/C is 104 % of control under setting [11], 101 % of control under setting [13] and 106 % of control under setting [15].
Take `CCCNC(=O)Nc1ccc(C)cc1`: the T/C runs as follows: (dose: 100.0 mg/kg/injection, schedule: Q01DX001 (ip), vehicle: carboxymethylcellulose (CMC)) 116 % of control; (dose: 200.0 mg/kg/injection, schedule: Q01DX001 (ip), vehicle: carboxymethylcellulose (CMC)) 94 % of control; (dose: 400.0 mg/kg/injection, schedule: Q01DX001 (ip), vehicle: carboxymethylcellulose (CMC)) 103 % of control.
`COC1C(=O)CCC2(CO2)C1(O)C1(C)OC1CCC(C)C` (centres undefined): the T/C runs as follows: (dose: 100.0 mg/kg/injection, schedule: Q01DX009 (ip), vehicle: acetone) 95 % of control; (dose: 200.0 mg/kg/injection, schedule: Q01DX009 (ip), vehicle: acetone) 92 % of control.
Turning to `Cc1ccc(-c2ccccc2)n1-c1ccccc1O`, the T/C is, setting by setting: (dose: 50.0 mg/kg/injection, schedule: Q01DX001 (ip), vehicle: other) 104 % of control; (dose: 100.0 mg/kg/injection, schedule: Q01DX001 (ip), vehicle: other) 102 % of control; (dose: 200.0 mg/kg/injection, schedule: Q01DX001 (ip), vehicle: other) 96 % of control; (dose: 400.0 mg/kg/injection, schedule: Q01DX001 (ip), vehicle: other) 98 % of control.
In the case of `COc1ccc(NC(=O)COc2ccccc2Br)cc1`, the T/C is 95 % of control under setting [5]; 101 % of control under setting [2]; 97 % of control under setting [8]; 96 % of control under setting [3]; 93 % of control under setting [17]; 93 % of control under setting [10].
In the case of `CCCCN=C(NCCCC)OC1CCCCC1`, the T/C was 98 % of control (dose: 11.1 mg/kg/injection, schedule: Q01DX Z (ip), vehicle: saline); 100 % of control (dose: 16.6 mg/kg/injection, schedule: Q01DX Z (ip), vehicle: saline); 102 % of control (dose: 25.0 mg/kg/injection, schedule: Q01DX Z (ip), vehicle: saline).
As for `CSc1ccc(NC(=O)Oc2cc(C)c(Cl)cc2C(C)C)cc1`, the T/C under setting [5] was 94 % of control, the T/C under setting [8] was 96 % of control and the T/C under setting [17] is 89 % of control.
On to `C=CCN(C(=O)OCC)c1ccccc1`, for which the T/C is 110 % of control under setting [5]; 95 % of control under setting [2]; 108 % of control under setting [8]; 106 % of control under setting [3]; 93 % of control under setting [17]; 106 % of control under setting [10].
As for `COc1ccc2c(OC)c3ccoc3nc2c1OC`, the T/C runs as follows: (dose: 25.0 mg/kg/injection, schedule: Q01DX Z (ip), vehicle: carboxymethylcellulose (CMC)) 97 % of control; (dose: 50.0 mg/kg/injection, schedule: Q01DX Z (ip), vehicle: carboxymethylcellulose (CMC)) 100 % of control.
Turning to `Cc1ccc(S(=O)(=O)OCC2(COS(=O)(=O)c3ccc(C)cc3)CCC2(COS(=O)(=O)c2ccc(C)cc2)COS(=O)(=O)c2ccc(C)cc2)cc1`, the T/C by setting is: (dose: 50.0 mg/kg/injection, schedule: Q01DX009 (ip), vehicle: saline) 97 % of control; (dose: 75.0 mg/kg/injection, schedule: Q01DX001 (ip), vehicle: saline) 93 % of control; (dose: 100.0 mg/kg/injection, schedule: Q01DX009 (ip), vehicle: saline) 89 % of control; (dose: 150.0 mg/kg/injection, schedule: Q01DX001 (ip), vehicle: saline) 96 % of control; (dose: 200.0 mg/kg/injection, schedule: Q01DX009 (ip), vehicle: saline) 89 % of control; (dose: 300.0 mg/kg/injection, schedule: Q01DX001 (ip), vehicle: saline) 93 % of control.
Turning to `COc1cc(Cl)ccc1N=CC(=O)c1ccc(C)cc1`, the T/C reads like this: (dose: 12.5 mg/kg/injection, schedule: Q04DX002 (ip), vehicle: Klucel (hydroxypropylcellulose) (HPC)) 94 % of control; under setting [18], 87 % of control; under setting [19], 115 % of control.
With `CC1=NN(c2ccccc2)C(=O)CC1`, the T/C is, setting by setting: under setting [2], 106 % of control; under setting [3], 100 % of control; under setting [10], 105 % of control.
Take `O=C1C(Cl)=C(Nc2nc3ccccc3s2)C(=O)c2ccccc21`: the T/C reads like this: under setting [4], 100 % of control; under setting [7], 94 % of control.
`Cc1cc(C)c(CS)c(C)c1`: the T/C was 98 % of control under setting [18]; 95 % of control under setting [19]; 98 % of control under setting [6]; 95 % of control under setting [9]; 100 % of control (dose: 400.0 mg/kg/injection, schedule: Q04DX002 (ip), vehicle: Klucel (hydroxypropylcellulose) (HPC)).
Take `COc1cc(NCCS(C)(=O)=O)ccc1C(=O)Nc1ccccc1`: the T/C by setting is: under setting [5], 105 % of control; under setting [2], 97 % of control; under setting [8], 97 % of control; under setting [3], 94 % of control; under setting [17], 101 % of control; under setting [10], 94 % of control.
With `CC1=N/C(=C/c2ccccc2Cl)C(=O)O1`, the T/C under setting [1] is 93 % of control; the T/C under setting [5] was 90 % of control; the T/C under setting [2] was 95 % of control; the T/C under setting [8] is 93 % of control; the T/C under setting [3] was 98 % of control.
